# In paper PMC8851638 (ACS Omega, 2022):
# Where “and” joins values, the source holds several entries; their conditions need not be identical. Equal entries are not always repeated.
# Key:
# [1] = system: S. epidermidis (MDR00223); assay: MIC and MBC by broth microdilution; type: cell-based, Staphylococcus epidermidis; settings: Staphylococcus epidermidis, read-out: MIC (mean ± SEM), S. epidermidis; broth microdilution
# [2] = system: B. subtilis (MDR00423); assay: MIC and MBC by broth microdilution; type: cell-based; settings: Bacillus subtilis, read-out: MIC (mean ± SEM), B. subtilis; broth microdilution
# [3] = system: E. coli (MDR00501); assay: MIC and MBC by broth microdilution; type: cell-based; settings: Escherichia coli, read-out: MIC (mean ± SEM), E. coli; broth microdilution
# [4] = system: S. aureus biofilm; assay: Staphylococcus biofilm mass reduction; type: cell-based; settings: at their MIC
# [5] = system: RBCs; assay: Hemolytic assay; type: cell-based; settings: human RBCs; compounds 1.0 mg/mL; Triton X-100 0.1% v/v; 37 °C, 35 min
# [6] = system: S. epidermidis biofilm; assay: Staphylococcus biofilm mass reduction; type: cell-based; settings: at their MIC
# [7] = system: S. aureus (MDR00231); assay: MIC and MBC by broth microdilution; type: cell-based, Staphylococcus aureus; settings: Staphylococcus aureus, read-out: MIC (mean ± SEM), S. aureus; broth microdilution
# [8] = system: C. albicans200 (MDR00200); assay: Agar well-diffusion antimicrobial sensitivity assay; type: cell-based, Candida albicans; settings: Candida albicans, read-out: Inhibition Zone (IZ)
# [9] = system: E. coli (MDR00501); assay: as above; type: cell-based; settings: Escherichia coli, read-out: Inhibition Zone (IZ)
# [10] = system: S. aureus (MDR00231); assay: as above; type: cell-based, Staphylococcus aureus; settings: Staphylococcus aureus, read-out: Inhibition Zone (IZ)
# [11] = system: S. epidermidis (MDR00223); assay: as above; type: cell-based, Staphylococcus epidermidis; settings: Staphylococcus epidermidis, read-out: Inhibition Zone (IZ)
# [12] = system: C. albicans100 (MDR00100); assay: as above; type: cell-based, Candida albicans; settings: Candida albicans, read-out: Inhibition Zone (IZ)
MIC [1],MIC [2],MIC [3],MIC [7],Compound,reduction of biofilm formation [4],%lysis of RBCs [5],reduction of biofilm formation [6],zone of inhibition at 100000 µg/mL [8],zone of inhibition at 100000 µg/mL [9],zone of inhibition at 100000 µg/mL [10],zone of inhibition at 100000 µg/mL [11],zone of inhibition at 100000 µg/mL [12]
0.47 ± 0.2 µg/mL,0.48 ± 0.3 µg/mL,0.46 ± 0.4 µg/mL,0.48 ± 0.1 µg/mL,"O=C(O)c1cn(C2CC2)c2cc(N3CCNCC3)c(F)cc2c1=O [CIP, Ciprofloxacin, reference compound]",43.2%,16.2% and 16.2 ± 0.5%,38%,–,–,–,–,–
–,–,–,–,"Cc1ccc(-c2nn(-c3ccccc3)cc2C=c2sc(=CC#N)[nH]c2=O)cc1 [Compound 3b, 2-(4-Oxo-5-((1-phenyl-3-(p-tolyl)-1H-pyrazol-4-yl)methylene)thiazolidin-2-ylidene)acetonitrile]",–,–,–,15 ± 0.8 mm,16 ± 0.34 mm,15 ± 0.63 mm,17 ± 0.21 mm,13 ± 0.22 mm
–,–,–,–,"CCOC(=O)C=c1[nH]c(=O)c(=Cc2cn(-c3ccccc3)nc2-c2ccccc2)s1 [Compound 3c, Ethyl 2-(5-((1,3-Diphenyl-1H-pyrazol-4-yl)methylene)-4-oxothiazolidin-2-ylidene)acetate]",–,–,–,14 ± 0.3 mm,18 ± 0.33 mm,13 ± 0.46 mm,15 ± 0.7 mm,15 ± 0.45 mm
–,–,–,–,"CCOC(=O)C=c1[nH]c(=O)c(=Cc2cn(-c3ccccc3)nc2-c2ccc(C)cc2)s1 [Compound 3d, Ethyl-2-(4-oxo-5-((1-phenyl-3-(p-tolyl)-1H-pyrazol-4-yl)methylene)thiazolidin-2-ylidene)-acetate]",–,–,–,16 ± 0.22 mm,15 ± 0.67 mm,15 ± 0.78 mm,16 ± 0.1 mm,13 ± 0.6 mm
–,–,–,–,"Cc1ccc(-c2nn(-c3ccccc3)cc2C=C(C#N)C2=NC(=O)CS2)cc1 [Compound 4b, 2-(4-Oxo-4,5-dihydrothiazol-2-yl)-3-(1-phenyl-3-(p-tolyl)-1H-pyrazol-4-yl)acrylonitrile]",–,–,–,23 ± 0.22 mm,22 ± 0.6 mm,20 ± 0.2 mm,19 ± 0.31 mm,22 ± 0.1 mm
–,–,–,–,"N#CC(=Cc1ccc(Cl)cc1)C1=NC(=O)C(=Cc2cn(-c3ccccc3)nc2-c2ccccc2)S1 [Compound 5b, 3-(4-Chlorophenyl)-2-(5-((1,3-diphenyl-1H-pyrazol-4-yl)methylene)-4-oxo-4,5-dihydrothiazol-2-yl)acrylonitrile]",–,–,–,25 ± 0.77 mm,22 ± 0.56 mm,24 ± 0.2 mm,21 ± 0.1 mm,23 ± 0.26 mm
–,–,–,–,"N#CC(=Cc1ccc([N+](=O)[O-])cc1)C1=NC(=O)C(=Cc2cn(-c3ccccc3)nc2-c2ccccc2)S1 [Compound 5c, 2-(5-((1,3-Diphenyl-1H-pyrazol-4-yl)methylene)-4-oxo-4,5-dihydrothiazol-2-yl)-3-(4-nitrophenyl)acrylonitrile]",–,–,–,24 ± 0.13 mm,21 ± 0.45 mm,22 ± 0.66 mm,24 ± 0.28 mm,21 ± 0.52 mm
–,–,–,–,"CCOC(=O)c1c(N)csc1-c1cn(-c2ccccc2)nc1-c1ccccc1 [Compound 7a, Ethyl 4-Amino-2-(1,3-diphenyl-1H-pyrazol-4-yl)thiophene-3-carboxylate]",–,–,–,25 ± 0.33 mm,22 ± 0.41 mm,24 ± 0.4 mm,21 ± 0.12 mm,21 ± 0.32 mm
–,–,–,–,"Cc1c(NN=C2SC(CC#N)=NC2=O)c(=O)n(-c2ccccc2)n1C [Compound 14, 2-(5-(2-(1,5-Dimethyl-3-oxo-2-phenyl-2,3-dihydro-1H-pyrazol-4-yl)hydrazono)-4-oxo-4,5-dihydrothiazol-2-yl)acetonitrile]",–,–,–,20 ± 0.88 mm,17 ± 0.35 mm,16 ± 0.21 mm,19 ± 0.23 mm,18 ± 0.66 mm
–,–,–,–,"Cc1c(NN=C2SC(C(C#N)=Cc3ccccc3)=NC2=O)c(=O)n(-c2ccccc2)n1C [Compound 15a, 2-(5-(2-(1,5-Dimethyl-3-oxo-2-phenyl-2,3-dihydro-1H-pyrazol-4-yl)hydrazono)-4-oxo-4,5-dihydrothiazol-2-yl)-3-phenylacrylonitrile]",–,–,–,20 ± 0.58 mm,15 ± 0.77 mm,16 ± 0.59 mm,18 ± 0.56 mm,16 ± 0.44 mm
–,–,–,–,"Cc1c(NN=C2SC(C(C#N)=Cc3ccc(Cl)cc3)=NC2=O)c(=O)n(-c2ccccc2)n1C [Compound 15b, 3-(4-Chlorophenyl)-2-(5-(2-(1,5-dimethyl-3-oxo-2-phenyl-2,3-dihydro-1H-pyrazol-4-yl)hydrazono)-4-oxo-4,5-dihydrothiazol-2-yl)acrylonitrile]",–,–,–,18 ± 0.76 mm,16 ± 0.85 mm,18 ± 0.44 mm,16 ± 0.25 mm,16 ± 0.34 mm
–,–,–,–,Triton X-100 [reference compound],–,95.12% and 95.12 ± 0.721%,–,–,–,–,–,–
